# Measurements published in patent publication US20240300934A1, “COMPOUNDS FOR MODULATING MYCOBACTERIUM TUBERCULOSIS RESPONSE” (priority 2021, published 2024).
# How the values were obtained:
# J774 cells = assay: Intracellular drug accumulation assay in J774 cells; conditions: 24 h exposure; uninfected J774 cells
# Mtb [1] = assay: Intrabacterial drug accumulation assay; conditions: 24 h exposure; 7H9 pH 7 ± 250 mM NaCl
# [2] = system: rv2390c′::GFP reporter Mtb strain; assay type: cell-based, Mycobacterium tuberculosis; conditions: for rv2390c′::GFP reporter signal upon Mtb exposure to high [Cl−] (in words): 10 μM, 250 mM NaCl; for rv2390c′::GFP Cl− response phenotype: compared to C6
# Mtb-infected J774 cells = conditions: 10 μM for 24 h; 5 days post-infection
# Mtb in J774 cells = assay: Mtb growth in J774 macrophage-like cells (mKO fluorescence); assay type: cell-based, Mycobacterium tuberculosis; conditions: for Mtb growth in J774 cells (in words): 10 μM, 6 days post-infection; for Inhibition of Mtb growth in J774 cells phenotype: compared to C6
# Description: For the tertiary screen of selected hit compounds in J774 murine macrophage-like cells, 30,000 J774 cells/well were seeded in bar-coded 384-well black, clear bottom plates in a 30 μl volume in J774 infection media (DMEM+10% FBS+1 mM sodium pyruvate+2 mM L-glutamine) using a ThermoFisher Multidrop Combi reagent dispenser, one day prior to assay start. On the day of the assay, log-phase Mtb constitutively expressing mKO were pelleted and resuspended in 1 ml basal uptake buffer (0.5% bovine serum albumin+25 mM dextrose+0.5 mM MgCl2+1 mM CaCl2+0.1% gelatin in phosphate buffered saline (PBS), passed 6× though a tuberculin syringe with a 25 G×5/8″ needle, then resuspended in J774 infection media to a final OD600=0.2. 10 μl of this bacterial suspension was added to each well of the 384-well plates containing the J774 cells, followed by addition of 10 μl of the appropriate compounds (pre-aliquoted in v-bottom plates in a 1:1 mix of PBS:J774 infection media). Addition of Mtb and compounds were conducted using a Janus Ministation. For each test plate, two columns of controls (16 wells each) were included, with one column consisting of treatment with DMSO as a carrier control (negative control), and the other column consisting of treatment with 5 μM rifampicin (positive control). This tertiary assay was done as a dose-response assay in duplicate runs, with compounds tested beginning at a final concentration of 20 μM and two-fold dilutions down to 0.039 μM. Plates were kept in humidified ziplock bags in a 37° C., 5% CO2 incubator. 6 days post-infection, mKO fluorescence signal was read using a PerkinElmer EnVision multimode plate reader (bottom read filter, excitation 530/8 nm, Bodipy TMR D555 single mirror, emission 579/25 nm). mKO fluorescence in DMSO-treated control samples were defined as 100% growth, and fluorescence observed in treatment conditions calculated as a percentage from that set value.
# For J774 infection in 96-well plates, 180,000 J774 cells were seeded per well in 180 μl of J774 infection media one day prior to infection. On the day of the assay, log-phase Mtb constitutively expressing mKO were pelleted and resuspended in 1 ml basal uptake buffer, passed 6× though a tuberculin syringe with a 25 G×5/8″ needle, then resuspended in J774 infection media to a final OD600=0.2. Media was removed from 96-well plate containing the J774 cells, with 140 μl of fresh J774 infection media added back to each well. 40 μl of the Mtb suspension at OD600=0.2 was added to each well, followed by addition of appropriate concentration of compound or DMSO in a 20 μl final volume in J774 infection media (compound final concentration 10 μM, rifampicin final concentration 5 μM, DMSO final concentration 0.1%/well). Bacterial mKO fluorescence was read immediately after infection using a Biotek Synergy Neo2 microplate reader (bottom read monochromator, excitation 543/10 nm, emission 565/10 nm), and again 6 days post-infection. Plates were kept in humidified ziplock bags in a 37° C., 5% CO2 incubator. mKO fluorescence in DMSO-treated control samples were defined as 100% growth, and fluorescence observed in treatment conditions calculated as a percentage from that set value.
# Mtb [3] = assay: Mtb growth assay in cholesterol media (OD600); assay type: cell-based, Mycobacterium tuberculosis; conditions: for Mtb growth in cholesterol media (in words): 10 μM, OD600; for Growth inhibition in cholesterol media phenotype: compared to C6
# [4] = system: Mtb in bone marrow-derived macrophages (BMDMs); assay: Mtb growth in primary murine bone marrow-derived macrophages (CFU); assay type: cell-based, Mycobacterium tuberculosis; conditions: 10 μM; added 2 hrs post-infection; eight-day time-course
# Description: C57BL/6J wild type mice (Jackson Laboratories) were used for extraction of bone marrow-derived macrophages. Cells were harvested and expanded in DMEM containing 10% FBS, 15% L-cell conditioned media, 2 mM L-glutamine, 1 mM sodium pyruvate, and penicillin/streptomycin as needed in a 37° C. incubator in a 5% CO2 atmosphere. […] Macrophages were lysed with water containing 0.01% sodium dodecyl sulfate and a dilution series of the samples plated on 7H10 agar for CFU determination.
# Mtb [5] = conditions: mice that do not form caseous necrotic lesions; cited from earlier work
# Mtb [6] = conditions: subset of mice failing to respond; cited from earlier work
Compound,intracellular accumulation in J774 cells (J774 cells),intrabacterial accumulation in Mtb (Mtb [1]),rv2390c′::GFP reporter signal upon Mtb exposure to high [Cl−] (in words) [2],rv2390c′::GFP Cl− response phenotype [2],accumulation in Mtb-infected J774 cells (Mtb-infected J774 cells),Mtb growth in J774 cells (in words) (Mtb in J774 cells),Inhibition of Mtb growth in J774 cells phenotype (Mtb in J774 cells),Mtb growth in cholesterol media (in words) (Mtb [3]),Growth inhibition in cholesterol media phenotype (Mtb [3]),Mtb bacterial load / growth in primary murine BMDM (in words) [4],efficacy in BALB/c mice (Mtb [5]),response in C3HeB/FeJ mice (Mtb [6])
"CCSc1ccc(CN2CCN(c3nc4ccccc4o3)CC2)cc1 [JSF-4300, 2-(4-(4-(ethylthio)benzyl)piperazin-1-yl)benzo[d]oxazole]",robust accumulation,robust accumulation,continuing to demonstrate the phenotypes seen with the parental C6 compound,Y,robust accumulation,continuing to demonstrate the phenotypes seen with the parental C6 compound,Y,continuing to demonstrate the phenotypes seen with the parental C6 compound,Y,,,
"COc1ncc(CN2CCN(c3nc4ccccc4o3)CC2)cn1 [JSF-4271, 2-(4-((2-methoxypyrimidin-5-yl)methyl)piperazin-1-yl)benzo[d]oxazole]",minimal accumulation,decreased accumulation,lost the ability,N,minimal accumulation,loss of the ability to inhibit Mtb growth,N,no longer inhibited Mtb growth in cholesterol media,N,loss of the ability to inhibit Mtb growth,,
COc1nc2ccc(Br)cc2cc1[C@@H](c1ccccc1)[C@@](O)(CCN(C)C)c1cccc2ccccc12 [bedaquiline],,,,,,,,,,,uniform efficacy across animals,heterogeneous response
NC(=O)c1cnccn1 [pyrazinamide],,,,,,,,,,,uniform efficacy across animals,heterogeneous response
